Experimental data reported in patent publication US12357657B2, “Silver-/gold-compounds and methods thereof” (priority 2019, dated 2025).

Tests used:
[1] = system: K. pneumoniae 9607 (MCR-1+); test: Murine infection model, bacterial loads in liver and spleen; type: in vivo, mice; conditions: monotherapy, single i.p. dose 1 hr post-infection, 48 hrs; colistin 2 mg kg^−1, auranofin 0.5 mg kg^−1, AgNO3 1.5 mg kg^−1
Protocol: For local infection experiment, an overnight culture of K. pneumoniae 9607 (MCR-1^+) was performed 1:250 dilution in LB broth and re-grew to about OD600 0.5 at 37° C., 250 rpm. Bacterial pellets were collected and washed by PBS buffer three times for further use. Mice were infected intraperitoneally (i.p.) with a dose of 2×10^6 CFU of bacteria in PBS. […] All the mice were scarified at 48 hrs following systemic infection, and bacterial loads in livers and spleens were examined by agar plating. […] Body weights and mice survival were monitored till endpoint of the experiment.

full length MCR-1 = target: T1, full length MCR-1 (Escherichia coli, UniProt A0A0R6L508); type: biochemical; conditions: MCR-1 pre-treated with 10 molar equivalents, 25° C. overnight
T1 construct: The full length MCR-1 was pre-treated with or without 10 molar equivalents
Protocol: TLC plate was used to separate NBD-glycerol from the MCR-1 reaction mixture in a mobile phase [ethyl acetate:methanol:water, 7:2:1 (vol/vol)]. The reaction product was analyzed by exposing the TLC plate to UV light (455-485 nm) and visualizing the fluorescent signals with a gel imaging system. […] Cellular Thermal Shift Assay

MCR-1-negative E. coli = type: cell-based; conditions: MCR-1-negative E. coli strain
Protocol: (§1) MIC values of either antibiotics or Bi(III) compounds were determined firstly by standard broth micro-dilution method (Clinical and Laboratory Standards Institute (CLSI) M100-S20, 2010). Briefly, bacteria cells were cultured in LB broth overnight at 37° C. at 250 rpm and the optical density was measured at 600 nm (OD600) using a microtiter plate reader. The bacterial density was adjusted to about 1×10^6 CFU mL^−1 and checked by CFU counting on agar plates afterwards. Tested compounds were added triplicately into individual wells of flat-bottomed 96-well plates and performed two-fold serial dilution, followed by addition of prepared bacterial inoculum. The plate was then incubated at 37° C. overnight. Lanes with no antibiotics or bismuth compounds served as positive controls and lanes with no bacteria added served as negative controls. The MIC was determined as the lowest concentration of compounds that could inhibit the growth of microorganism by both visual reading and OD600 measurement.
(§2) Other procedures and the check of MIC were kept strictly the same. […] Synergism was defined as FICI≤0.5, indifference was defined as FICI>0.5 and <4, and antagonism was defined as FICI≥4. All of the determinations were performed at least in triplicate on different days.

Zn(II)-MCR-1-S = Zn(II)-MCR-1-S (Escherichia coli, UniProt A0A0R6L508); conditions: PAR assay
Protocol: UV-visible spectra were collected by Varian Cary 50 spectrophotometer at a rate of 360 nm/min by using the 1 cm^−1 quartz cuvette. 4-(2-pyridylazo) resorcinol (PAR), a Zn(II) chelator, can strongly chelate free Zn^2+ to form Zn(PAR)2 complex, leading to an obvious migration of maximum absorbance peak from ca. 420 nm to ca. 500 nm. Herein, we incubated apo-MCR-1-S with 10 folds Zn^2+ in dialysis buffer (20 mM HEPES, pH=7.4, 50 mM NH4NO3). After 12 hour incubation, Zn(II)-MCR-1-S was separated into aliquots and then mixed with Ag(I), Au(I) or even their compounds at different molecular ratios. Dialysis buffer instead of these metal compounds was added into Zn(II)-MCR-1-S solution as negative controls. For positive control, 10-folds of Zn(II) were mixed with apo-MCR-1-S. By comparing the peak intensities among different groups, the amounts of released Zn(II) could be calculated. UV-visible spectra were recorded in a range of 220-600 nm at least 30 min later after incubation.

MCR-1-S = MCR-1-S (Escherichia coli, UniProt A0A0R6L508); conditions: ICP-MS
Protocol: The equilibrium dialysis was used to monitor the exact binding process. Apo-MCR-1-S was put in the inner side of dialysis membrane and outer side was supplemented with Au^+, Ag^+ or Zn^2+ at different molar ratios. Zn^2+ displacement analysis was performed by adding equivalents of Au^+ and Ag^+ into outer side of the membrane.

MCR-1-producing E. coli = test: Mutant prevention concentration (MPC) test; type: cell-based; conditions: for mutant colonies: colistin alone at 16×MIC, or colistin with 30 μg mL^−1 of the compound; for MPI of colistin (MPC/MIC): in presence of 30 μg mL^−1 of the compound
Source text: Given the very notion of MIC, all susceptible bacterial cells are suppressed or killed by a dose above it. […] The dose of compounds at MIC adversely amplifies the population of those less-susceptible mutants. Thus, mutant prevention concentration (MPC), defined as a compound concentration that suppresses the growth of first-step resistant mutant in large quantity of susceptible bacterial population, together with mutant prevention index (MPI=MPC/MIC), is introduced to estimate the mutant prevention ability of exemplary compound combination. […] All the plates were incubated at 37° C. Upon incubation for 48 hours, up to 4 colonies were picked and re-cultured from any plates with observable colonies, followed by the measurement of their MIC values. […] The concentration that restricted the growth of mutant colonies was determined as MPC.

E. coli CKE = test: Murine systemic infection model, survival assay; type: in vivo, mice; conditions: for mice rescued from death: combination with colistin 1 mg kg^−1, single i.p. dose 0.5 hr post infection; for protection of mice from death: mono-therapy, AgNO3 0.75 mg kg^−1 or auranofin 0.25 mg kg^−1 i.p., within 72 hours
apo-MCR-1-S = apo-MCR-1-S (Escherichia coli, UniProt A0A0R6L508); test: biochemical
Protocol: The apo-MCR-1-S without any tag was diluted into proper concentration for ITC assay. […] The stoichiometry of metal binding and binding affinities were obtained by fitting the data with proper equations and these assays were performed in triplicate.

S. flexneri (MCR-1+) = type: cell-based; conditions: MCR-1 positive S. flexneri; AgNO3 10 μM, auranofin 3 μM, Au(PEt3)Cl 3 μM; untreated 4.1, MCR-1 negative 6.1
Protocol: Membrane potential assay was carried out based on a modified method according to manufacturer's instructions. […] The bacterial pellets were then resuspended in PBS supplemented with DiOC2 (30 μM) and stained at 37° C. for 30 mins. Stained bacteria were then assayed in a flow cytometer and the signals from FITC-A (488 nm, green gate) and PI-A (633 nm, red gate) were collected and then analyzed. S. flexneri without treatment served as the control.

MCR-producing E. coli [2] = type: cell-based
Protocol: as §1, §2

MCR-producing E. coli [3] = test: In vitro serial passage resistance assay; type: cell-based; conditions: colistin combined with the compound
Protocol: The in vitro passage assay was also conducted to evaluate the antimicrobial durability of the combination. In a typical experiment, an overnight culture of MCR-producing E. coli was diluted to 10^7 CFU mL^−1 in LB broth. […] All the plates were incubated at 37° C. and the growth of cultures was checked at 24 h intervals. Cultures from the second highest concentrations that allowed growth were performed 1:1000 dilution into fresh medium supplemented with the same concentrations of drugs. For colistin, 1-fold of MIC was set as 4 μg mL^−1. This in vitro passage was repeated for 20 days. MIC of MER was determined every four passages.

MCR-1 = target: T2, MCR-1 (Escherichia coli, UniProt A0A0R6L508); type: cell-based, E. coli BL21(DE3); conditions: overnight exposure, in cellulo
T2 construct: solvable truncated MCR-1 fragment (200-541 aa) but without any tag; expressed in transfected cells; host or cells: E. coli BL21(DE3)
T2 sequence (A0A0R6L508 200-541): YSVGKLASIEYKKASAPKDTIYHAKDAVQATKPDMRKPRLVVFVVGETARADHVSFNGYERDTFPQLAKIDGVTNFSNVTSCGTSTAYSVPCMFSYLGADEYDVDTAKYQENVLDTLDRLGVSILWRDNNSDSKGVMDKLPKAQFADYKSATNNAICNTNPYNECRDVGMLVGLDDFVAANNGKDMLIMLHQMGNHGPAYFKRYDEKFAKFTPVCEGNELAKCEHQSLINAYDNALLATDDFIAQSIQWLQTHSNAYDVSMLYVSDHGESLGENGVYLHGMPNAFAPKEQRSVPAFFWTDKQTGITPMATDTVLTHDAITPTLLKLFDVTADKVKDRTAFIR
Protocol: Considering that MCR-1 is a transmembrane protein, we constructed a plasmid with solvable truncated MCR-1 fragment (200-541 aa) but without any tag and then transferred it into E. coli BL21(DE3). The cellular thermal shift assay was performed according to a general standard method. […] The bacterial pellets were harvested and washed with PBS for 3 times. The cell suspensions were aliquoted into PCR tubes and heat treatment was performed at the designated temperature for 3 mins in a 96-well thermal cycler. The tubes were cooled immediately at 25° C., and the heat treatments were repeated for three cycles. For the cell lysis, the samples were frozen-thawed in liquid nitrogen and thermal cycler was set at 25° C. The samples were vortexed gently after each cycle and centrifuged at 20,000×g to obtain the supernatant. All the samples were subjected to SDS-PAGE gel and electrotransferred to a PVDF membrane (Hybond-P, GE Healthcare). A PageRuler Prestained Protein Ladder #26616 (Thermo) was used as a standard marker.

MCR-1-S, sequence (A0A0R6L508 200-541): as above
apo-MCR-1-S, sequence (A0A0R6L508 200-541): as above
T1 sequence (A0A0R6L508 whole entry): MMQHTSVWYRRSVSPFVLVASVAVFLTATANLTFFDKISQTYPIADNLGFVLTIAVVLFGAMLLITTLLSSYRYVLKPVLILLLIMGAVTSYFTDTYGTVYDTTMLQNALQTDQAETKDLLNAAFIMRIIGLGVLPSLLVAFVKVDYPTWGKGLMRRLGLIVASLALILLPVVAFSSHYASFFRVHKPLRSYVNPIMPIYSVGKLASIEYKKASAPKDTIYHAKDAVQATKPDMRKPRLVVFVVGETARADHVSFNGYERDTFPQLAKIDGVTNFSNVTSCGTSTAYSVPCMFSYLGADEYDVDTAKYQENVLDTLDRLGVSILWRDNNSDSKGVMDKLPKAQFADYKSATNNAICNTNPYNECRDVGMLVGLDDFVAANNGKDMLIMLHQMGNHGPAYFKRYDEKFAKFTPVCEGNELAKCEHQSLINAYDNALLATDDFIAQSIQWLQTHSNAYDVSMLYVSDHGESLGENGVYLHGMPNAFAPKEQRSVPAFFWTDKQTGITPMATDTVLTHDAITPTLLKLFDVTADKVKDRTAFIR
Zn(II)-MCR-1-S, sequence (A0A0R6L508 200-541): as the sequence (A0A0R6L508 200-541) above

SMILES	CFUs in liver and spleen [1]	migration of NBD-glycerol (cleavage activity of MCR-1) (full length MCR-1)	inhibition in combination with colistin (MCR-1-negative E. coli)	release of Zn(II) from MCR-1-S upon titration (Zn(II)-MCR-1-S)	replacement of protein bound metal by extraneous Zn(II) (MCR-1-S)	equivalents of metal that replaced about 3 molar equivalents of Zn(II) (MCR-1-S; equilibrium dialysis) [equivalent]	mutant colonies (MCR-1-producing E. coli)	MPI of colistin (MPC/MIC) (MCR-1-producing E. coli)	mice rescued from death (E. coli CKE)	protection of mice from death (E. coli CKE)	Kd (apo-MCR-1-S) [nM]	green/red fluorescent ratio after treatment (S. flexneri (MCR-1+))	MIC of colistin in combination with the compound (MCR-producing E. coli [2]; checkerboard, lowest colistin MIC reached with increasing compound) [µg/mL]	FIC index (FICI) with colistin (MCR-producing E. coli [2]; synergism FICI≤0.5)	fold rise of colistin MIC after 16 serial passages (MCR-producing E. coli [3]) [folds]	decrease of cellular thermal stability of MCR-1, ΔTm (MCR-1) [°C]
[Ag+] [AgNO3, silver nitrate]	~10^5 cfu mL^−1 g^−1	none of AgNO3, AuCl or Au(PEt3)Cl treatment group exhibited observable migration	no inhibition was observed	completely released	could not be replaced	16	no mutant colony was observable	0.5	3 out of 6	failed to protect any of the mice from death	~200	–	–	–	–	–
[Zn+2] [Zn(Ac)2, zinc(II) acetate]	–	–	–	–	–	–	–	–	–	–	~2450	–	–	–	–	–
CC(=O)OC[C@H]1O[C@@H]([S-])[C@H](OC(C)=O)[C@@H](OC(C)=O)[C@@H]1OC(C)=O.CCP(CC)CC.[Au+] [auranofin]	~10^5 cfu mL^−1 g^−1	–	no inhibition was observed	–	–	–	no mutant colony was observable	0.5	protect all the infected mice from death	failed to protect any of the mice from death	–	6.1	0.25	0.375	4	5.2
